Values after ≈ are worked out from the molar mass of the structure shown. Structures can show the parent of a compound that is named as a salt.

The experiment has as its system S. aureus Col (Meth^R) (lac^-). In words: MIC by agar dilution, S. aureus Col (Meth^R) (lac^-). The experiment is classed as cell-based. The note with it: Staphylococcus aureus; agar dilution; S. aureus Col (Meth^R) (lac^-); read-out: MIC. The essentials:
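Log-phase isolates were spot-inoculated at about 10^4 cfu onto Mueller-Hinton agar carrying duplicate two-fold compound levels, 128 μg/mL to ≤0.25 μg/mL, following NCCLS (1991). Plates were read after 16-20 h at 35°-36° C. The lowest growth-inhibiting concentration gave the MIC (μg/ml).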
In general terms: Agar dilution tests growth on a series of plates holding different concentrations.
The MIC is the smallest concentration in the dilution series that meets the test's criterion for growth inhibition. As for `N#Cc1ccc(SC2=C(C(=O)O)N3C(=O)[C@@H](NC(=O)Cc4ccccc4)[C@H]3SC2)c([N+](=O)[O-])c1` [Cmpd 49, (7R)-7-[(Phenylacetyl)amino]-3-(4-cyano-2-nitrophenylthio)-3-cephem-4-carboxylic acid], the MIC came out at 4 µg/mL (≈ 8.06 µM). As for `C[n+]1cccc(SC2=C(C(=O)[O-])N3C(=O)[C@@H](NC(=O)Cc4ccccc4)[C@H]3SC2)c1-c1ccccc1` [Cmpd 82, (7R)-7-[(Phenylacetyl)amino]-3-(2-phenyl-N-methylpyridin-3-iumthio)-3-cephem-4-carboxylate], the figure is 4 µg/mL (≈ 7.73 µM). For `O=C(Cc1ccccc1)N[C@@H]1C(=O)N2C(C(=O)O)=C(Sc3ccccc3CO)CS[C@H]12` [Cmpd 38, (7R)-7-[(Phenylacetyl)amino]-3-(2-hydroxymethylphenylthio)-3-cephem-4-carboxylic acid] the value was 4 µg/mL (≈ 8.76 µM); for `O=C(Cc1ccccc1)N[C@@H]1C(=O)N2C(C(=O)O)=C(Sc3cccc4oc5ccccc5c34)CS[C@H]12` [Cmpd 21, (7R)-7-[(Phenylacetyl)amino]-3-(dibenzofuranyl-1-thio)-3-cephem-4-carboxylic acid], 1 µg/mL (≈ 1.94 µM). For `O=C(Cc1ccccc1)N[C@@H]1C(=O)N2C(C(=O)O)=C(Sc3ccnn3-c3ccc(F)cc3)CS[C@H]12` [Cmpd 123, (7R)-7-[(Phenylacetyl)amino]-3-(1-N-(4-fluorophenyl)pyrazol-5-ylthio)-3-cephem-4-carboxylic acid] the value was 4 µg/mL (≈ 7.83 µM).

In the case of `O=C(Cc1ccccc1)N[C@@H]1C(=O)N2C(C(=O)O)=C(Sc3snnc3-c3ccccc3)CS[C@H]12` [Cmpd 93, (7R)-7-[(Phenylacetyl)amino]-3-(4-phenyl-1,2,3-thiadiazol-5-ylthio)-3-cephem-4-carboxylic acid], the MIC came out at 2 µg/mL (≈ 3.92 µM).

Consider `COc1ccc(Cc2ccc(-c3ccccc3SC3=C(C(=O)O)N4C(=O)[C@@H](NC(=O)Cc5ccccc5)[C@H]4SC3)s2)cc1` [Cmpd 43, (7R)-7-[(Phenylacetyl)amino]-3-(2-(2-(4-methoxyphenylmethyl)thien-5-yl)phenylthio)-3-cephem-4-carboxylic acid], for which the MIC is 4 µg/mL (≈ 6.36 µM).

Take `O=C(Cc1ccccc1)N[C@@H]1C(=O)N2C(C(=O)O)=C(Sc3cccc4c3CCCC4)CS[C@H]12` [Cmpd 56, (7R)-7-[(Phenylacetyl)amino]-3-(5,6,7,8-tetrahydronaphthalen-1-ylthio)-3-cephem-4-carboxylic acid]: the MIC is 1 µg/mL (≈ 2.08 µM).

As for `N=C(N)SCc1ccccc1SC1=C(C(=O)O)N2C(=O)[C@@H](NC(=O)Cc3ccc(CN)cc3)[C@H]2SC1` [Cmpd 124, (7R)-7-[((4-aminomethylphenyl)acetyl)amino]-3-(2-isothiouroniummethylphenylthio)-3-cephem-4-carboxylate, trifluoroacetic acid salt], the MIC stood at 4 µg/mL. As for `O=C(Cc1ccccc1)N[C@@H]1C(=O)N2C(C(=O)O)=C(Sc3ccnn3-c3ccccn3)CS[C@H]12` [Cmpd 105, (7R)-7-[(Phenylacetyl)amino]-3-(1-N-(pyridin-2-yl)pyrazol-5-ylthio)-3-cephem-4-carboxylic acid], the figure is 4 µg/mL (≈ 8.1 µM).

For the compound `O=C(O)C1=C(Sc2ccnn2-c2ccccc2)CS[C@@H]2[C@H](NC(=O)C(=NO)c3ccco3)C(=O)N12` [Cmpd 121, (7R)-7-[2-(2-furyl)-2-(hydroxyimino)acetamido]-3-(1-N-phenylpyrazol-5-ylthio)-3-cephem-4-carboxylic acid], the MIC was found to be 4 µg/mL (≈ 7.82 µM). For `O=C(Cc1ccccc1)N[C@@H]1C(=O)N2C(C(=O)O)=C(Sc3ccc(F)cc3)CS[C@H]12` [Cmpd 1, (7R)-7-[(Phenylacetyl)amino]-3-(p-fluorophenylthio)-3-cephem-4-carboxylic acid] the value was 16 µg/mL (≈ 36 µM); for `O=C(Cc1ccccc1)N[C@@H]1C(=O)N2C(C(=O)O)=C(Sc3ccc(Cl)cc3)CS[C@H]12` [Cmpd 3, (7R)-7-[(Phenylacetyl)amino]-3-(p-chlorophenylthio)-3-cephem-4-carboxylic acid], 2 µg/mL (≈ 4.34 µM).

Values taken from patent US5698547A, “Cephalosporin antibiotics” (Microcide Pharmaceuticals, Inc., priority 1995, dated 1997).
